Literature values, collected in patent US20070298069A1, “Medical devices for release of low solubility therapeutic agents” (Boston Scientific Scimed, Inc., priority 2006, published 2007).

System: most gram positive and gram negative aerobic and anaerobic bacteria, some yeast and fungi
Details: in most organisms tested

## Oc1cc(Cl)ccc1Oc1ccc(Cl)cc1Cl [triclosan]
  MIC: < 0.3 ppm
